Experimental findings from patent US12667626B2, “Compositions and methods relating to erythrocytes with adhered particles” (PRESIDENT AND FELLOWS OF HARVARD COLLEGE, priority 2019, dated 2026) are described below.

Data set [1] has as its system B16F10-Luc melanoma lung metastasis. The experiment in a line: Efficacy in early-stage B16F10-Luc lung metastasis model. It counts as in vivo, mice. The protocol:
Efficacy studies on in vivo experimental lung metastasis model. Experimental lung metastasis model was established by intravenous injection of 1×10^5 B16F10-Luc cells in to the tail vein of female C57BL/6 mice. Efficacy for the treatment groups was evaluated in an early stage and late stage metastatic models. Mice were randomized based on the bioluminescence intensity in the lungs one day before the first injection of therapies. A control (Saline) group and three treatment groups (DOX-NPs, RBC-NPs, free DOX) at a dose of 5.2 mg/kg were evaluated for their efficacy (n=7 for all groups, unless otherwise specified).
For the early-stage metastatic model, treatments were given starting the day after the inoculation. Four injections were given over six days, i.e. day 1, 3, 5 and 7 after inoculation. On days 6, 8, 10, 12, 18, 23, 31 after inoculation, the mice were imaged using in vivo imaging (Perkin Elmer IVIS Spectrum™, MA, USA). Briefly, mice were injected intraperitoneally with 150 μL of 30 mg/mL Xenolight™-D-luciferin in saline. […] The average radiance (bioluminescence intensity) was evaluated using the software Living System®. The animals were further monitored for their survival.

A short description of data set [2]: Chemokine gradient assay (CXCL10 in lung and blood). It counts as in vivo, mice. As to conditions: 5× higher dose, free form. The procedure: The chemokine gradient assay was conducted on the early-stage lung metastasis model as follows. To evaluate chemokine gradient restoration capability of the therapy, early-stage spontaneous lung metastasis model was established as described in the previous context. One saline and three treatment groups (5× free CXCL10 chemokine, ImmunoBait with anti-ICAM-1, and erythrocyte hitchhiked ImmunoBait with anti-ICAM-1) were included into the study. Treatments were given starting one week after surgery. Two injection sets were given on day 7 and day 10 after surgery. (n=4-5 for each time point for each group). Mice were sacrificed at 20 mins and 6 h after the second injection, blood was collected by cardiac puncture and lungs were excised. Chemokine content in lungs and blood were quantified as described above.
The chemokine gradient assay was conducted on the early-stage lung metastasis model as follows. To evaluate chemokine gradient restoration capability of the therapy, early-stage spontaneous lung metastasis model was established as described in the previous context. One saline and three treatment groups (5× free CXCL10 chemokine containing 12.5 μg CXCL10, ImmunoBait with anti-ICAM-1 containing 2.5 μg CXCL10, and erythrocyte hitchhiked ImmunoBait with anti-ICAM-1 containing 2.5 μg CXCL10) were included into the study. […] Chemokine content in lungs and blood were quantified as described above.

Take `COc1cccc2c1C(=O)c1c(O)c3c(c(O)c1C2=O)C[C@@](O)(C(=O)CO)C[C@@H]3O[C@H]1C[C@H](N)[C@H](O)[C@H](C)O1` [free drug, doxorubicin]: the “lung metastasis burden inhibited” value in data set [1] (day 16, early-stage model) amounted to 94.2%. In data set [1] (early-stage model, control 29 days), this molecule gave a median survival time of 32 days. Besides, in data set [1] (treatment period, 5.2 mg/kg), the body weight change result was “sharp decline in the body weight”.
For CXCL10 [free chemokine], the chemokine gradient established result in data set [2] is “weak chemokine gradient”.
